The text below walks through data of ChEMBL document CHEMBL1201862, “PubChem BioAssay data set” (2004).

Test systems include 786-0; CCRF-CEM; HCT-15; A549; SF-295; MOLT-4; SF-539; OVCAR-8; NCI-H522; UO-31; OVCAR-5; SNB-75; HT-29; RPMI-8226; UACC-257; A498.
Test in all cases: growth of human tumour cells (NCI), 48 h

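96-well plates; 48 h exposure; 5 concentrations. Endpoints by linear interpolation between flanking doses. Not reached: highest tested concentration assigned. GI50 marks 50% less growth.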 Activity calls are given as the source filed them. Rule as the data show it: active = GI50 up to about 1.1 µM and inactive = higher.

Take `O=C1C(=Cc2cccs2)C(=O)N(CCc2ccccc2)S(=O)(=O)N1CCc1ccccc1`: the GI50 with 786-0 was > 50 µM (inactive); in the assay on CCRF-CEM it was 36.9 µM (inactive); in the assay on HCT-15 it was > 50 µM; in the assay on A549, > 50 µM (inactive); with SF-295 it was > 50 µM (inactive); in the assay on MOLT-4, > 50 µM (inactive). For the same compound, the GI50 in the assay with SF-539 is > 50 µM (inactive); with OVCAR-8 it was > 50 µM (inactive); with NCI-H522 it was 15.5 µM (inactive); in the assay on UO-31, > 50 µM (inactive); in the assay on OVCAR-5, > 50 µM (inactive); in the assay with SNB-75, > 50 µM (inactive). For the same compound, the GI50 with HT-29 was > 50 µM (inactive); in the assay on RPMI-8226, 20.7 µM (inactive); in the assay with UACC-257, > 50 µM (inactive).
Consider `Cc1ccc(S(=O)(=O)C(C#N)c2nc3ccccc3nc2-n2cccn2)cc1` (configuration not stated), for which the GI50 is > 100 µM (inactive) in the assay on 786-0; > 100 µM (inactive) in the assay on CCRF-CEM; > 100 µM in the assay on HCT-15; > 100 µM (inactive) in the assay on A549; > 100 µM (inactive) with SF-295; > 100 µM (inactive) in the assay with MOLT-4. The GI50 in the assay on SF-539, with OVCAR-8, in the assay on UO-31, with OVCAR-5, in the assay with SNB-75 and in the assay on HT-29 was > 100 µM (inactive) throughout. Besides, the GI50 with RPMI-8226 and in the assay on UACC-257 was > 100 µM (inactive) throughout.
As to `C=C1C(=O)OC2C=C(CCC(C)=O)C(C)C(OC(C)=O)CC12` (configuration not stated), the GI50 is 9.68 µM (inactive) in the assay on 786-0; 2.6 µM (inactive) with CCRF-CEM; 6.11 µM in the assay with HCT-15; 22.2 µM (inactive) in the assay on A549; 17.7 µM (inactive) in the assay on SF-295; 6.1 µM (inactive) in the assay on MOLT-4. The GI50 in the assay on SF-539 was 15.2 µM (inactive); with OVCAR-8, 16.5 µM (inactive); in the assay on UO-31, 13.6 µM (inactive); with OVCAR-5, 16.1 µM (inactive); in the assay with SNB-75 it was 10.8 µM (inactive); in the assay on HT-29, 11.8 µM (inactive). Also, the results for the GI50 with RPMI-8226 and in the assay with A498 were 4.52 µM (inactive) and 16.1 µM (inactive), respectively.
For `O=C(CC1(O)C(=O)Nc2c(Cl)cc(Cl)cc21)c1ccc(F)cc1` (configuration not stated), the GI50 was 19.8 µM (inactive) with 786-0; 30.6 µM with HCT-15; 59 µM (inactive) with A549; 34.7 µM (inactive) in the assay with SF-295; 28.4 µM (inactive) with SF-539; 21.2 µM (inactive) in the assay with OVCAR-8. For the same compound, the GI50 was 42.1 µM (inactive) in the assay with UO-31; 64.7 µM (inactive) with OVCAR-5; 25.9 µM (inactive) in the assay with SNB-75; 27.3 µM (inactive) in the assay with HT-29; 24.9 µM (inactive) with RPMI-8226; 27.6 µM (inactive) in the assay on UACC-257.
For the compound `CC1(C)C(O)OC(O)C1(C)C` (configuration not stated), the GI50 in the assay on 786-0 is 93.1 µM (inactive); in the assay with CCRF-CEM, 46 µM (inactive); with HCT-15 it was 28.1 µM; in the assay on A549 it was > 100 µM (inactive); in the assay with SF-295, > 100 µM (inactive); with MOLT-4, 49.2 µM (inactive). Moreover, the GI50 is 41.8 µM (inactive) with OVCAR-8; 57.3 µM (inactive) in the assay on UO-31; > 100 µM (inactive) with OVCAR-5; 35.2 µM (inactive) with SNB-75; 62.4 µM (inactive) in the assay on HT-29; 70 µM (inactive) in the assay on RPMI-8226. Also, in the assay on UACC-257, the GI50 is 34.5 µM (inactive).
As for `COC1(C)C(=O)N2C1N(C(=O)OCc1ccccc1)CC2(C)C` (configuration not stated), the GI50 in the assay with 786-0 is > 100 µM (inactive); with CCRF-CEM it was > 100 µM (inactive); with HCT-15, > 100 µM; with A549, > 100 µM (inactive); in the assay on SF-295 it was > 100 µM (inactive); with MOLT-4, > 100 µM (inactive). Moreover, the GI50 is > 100 µM (inactive) with SF-539; > 100 µM (inactive) with OVCAR-8; > 100 µM (inactive) in the assay on UO-31; 44.9 µM (inactive) in the assay on SNB-75; > 100 µM (inactive) in the assay on HT-29; > 100 µM (inactive) with RPMI-8226. For the same compound, the GI50 with UACC-257 and in the assay with A498 was > 100 µM (inactive) in each case.
